Data reported in publication PMC4513954 (Journal of medicinal chemistry, 2015).
Where two headings read alike, the source gives them in different places.

Experiments:
[1] = test system: MRSA strain (S. aureus); settings: cited from earlier work
[2] = test system: undecaprenyl diphosphate synthase (UPPS); settings: read-out: UPPS IC50; cited from earlier work
[3] = test system: S. aureus; settings: S. aureus in vitro; cited from earlier work
[4] = Toxicity against mammalian cells; type: cell-based
[5] = test system: Yersinia pestis; settings: cited from earlier work
[6] = test system: Bacillus anthracis; settings: cited from earlier work
[7] = test system: E. coli (K12); assay: E. coli cell growth inhibition; settings: Escherichia coli, read-out: E. coli EC50, cell growth inhibition, E. coli K12
[8] = target: undecaprenyl diphosphate synthase (UPPS); assay: UPPS inhibition; type: biochemical; settings: read-out: UPPS IC50; both UPPS enzymes, approximate

For O=C(Nc1cccc(C2=NCCN2)c1)c1ccc(-c2ccc(C(=O)Nc3cccc(C4=NCCN4)c3)cc2)cc1 [Compound 1, N4,N4'-bis(3-(4,5-dihydro-1H-imidazol-2-yl)phenyl)-[1,1'-biphenyl]-4,4'-bicarboxamide], the adverse side-effects ([1]; S. aureus mouse model of infection) is listed as “no adverse side-effects”, the mice survived ([1]; i.p. infection model with a MRSA strain) is listed as 20/20 and the IC50 [2] is listed as roughly 100 nM. The MIC [3] was ~ 250 ng/mL and the EC50 [4] was greater than 100000 nM.

In the case of c1cc2cc(-c3ccc(-c4cc5ccc(C6=NCCN6)cc5[nH]4)cc3)[nH]c2cc1C1=NCCN1 [Compound 7, 1,4-bis(6-(4,5-dihydro-1H-imidazol-2-yl)-1H-indol-2-yl)benzene], the “efficacy in mice model of infection” value [5] is given as “effective” and the “efficacy in mice model of infection” value [6] is given as “effective”.

For C(=C\c1cc2ccc(C3=NCCN3)cc2[nH]1)/c1cc2ccc(C3=NCCN3)cc2[nH]1.Cl [Compound 8], the “efficacy in mice model of infection” value [5] is listed as “effective” and the “efficacy in mice model of infection” value [6] is listed as “effective”.

O=C(Nc1cccc(C2=NCCCN2)c1)c1ccc(-c2ccc(C(=O)Nc3cccc(C4=NCCCN4)c3)cc2)cc1 [Compound 10, N4,N4'-bis(3-(1,4,5,6-tetrahydropyrimidin-2-yl)phenyl)biphenyl-4,4'-dicarboxamide] showed an EC50 [7] of less than 1000 nM and an IC50 [8] of roughly 5000 nM.
